Source: patent US20080167330A1, “Carbamoylsulphoximides as protein kinase inhibitors” (priority 2006, published 2008)

How the values were obtained:
Format in all cases: biochemical
[1] = target: T1, human Aurora-C (Homo sapiens, UniProt Q9UQB9); assay: Aurora-C kinase assay (HTRF); conditions: 10 μM ATP
T1 construct: GST; made in house; host or cells: transiently transfected HEK293 cells
T1 sequence (Q9UQB9 1-309): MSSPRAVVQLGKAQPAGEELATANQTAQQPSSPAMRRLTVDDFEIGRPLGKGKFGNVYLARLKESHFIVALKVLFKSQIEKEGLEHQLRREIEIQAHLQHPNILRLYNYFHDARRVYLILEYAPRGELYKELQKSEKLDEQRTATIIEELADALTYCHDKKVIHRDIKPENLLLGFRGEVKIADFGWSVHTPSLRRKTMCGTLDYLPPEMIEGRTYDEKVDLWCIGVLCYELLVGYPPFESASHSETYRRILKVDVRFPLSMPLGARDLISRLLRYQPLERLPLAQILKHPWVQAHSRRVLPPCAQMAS
Protocol: The Aurora-C inhibitory activity of the substances of this invention was measured in the Aurora-C-HTRF assay (HTRF=Homogeneous Time Resolved Fluorescence) described in the following paragraphs.
Recombinant fusion protein of GST and human Aurora-C was expressed in transiently transfected HEK293 cells and purified by affinity chromatography on glutathione-Sepharose. The substrate used for the kinase reaction was the biotinylated peptide biotin-Ttds-FMRLRRLSTKYRT (C terminus in amide form) which can be purchased for example from JERINI Peptide Technologies (Berlin). Aurora-C was incubated in the presence of various concentrations of test substances in 5 μL of assay buffer [25 mM Hepes/NaOH pH 7.4, 0.5 mM MnCl2, 2.0 mM dithiothreitol, 0.1 mM sodium orthovanadate, 10 μM adenosine triphosphate (ATP), […] substrate, 0.01% (v/v) TritonX-100 (Sigma), 0.05% (w/v) bovine serum albumin (BSA), 1% (v/v) dimethyl sulphoxide] at 22° C. for 60 min. The concentration of Aurora-C was adapted to the particular activity of the enzyme and adjusted so that the assay operated in the linear range. Typical concentrations were in the region of 0.3 nM. The reaction was stopped by adding 5 μl of a solution of HTRF detection reagents (0.2 μM streptavidin-XLent and 1.4 nM anti-phospho-(Ser/Thr)-Akt substrate-Eu-cryptate (Cis biointernational, France, product No. 61P02KAE), a Europium-cryptate-labelled phospho-(Ser/Thr)-Akt substrate antibody [product #9611B, Cell Signaling Technology, Danvers, Mass., USA]) in aqueous EDTA solution (40 mM EDTA, 400 mM KF, 0.05% (w/v) bovine serum albumin (BSA) in 25 mM HEPES/NaOH pH 7.0).
The resulting mixture was incubated at 22° C. for 1 h in order to allow formation of a complex of the biotinylated phosphorylated substrate and the detection reagents. The amount of phosphorylated substrate was then estimated by measuring the resonance energy transfer from the anti-phospho-(Ser/Thr)-Akt substrate-Eu cryptate to the streptavidin-XLent. For this purpose, the fluorescence emissions at 620 nm and 665 nm after excitation at 350 nm were measured in an HTRF measuring instrument, e.g. a Rubystar (BMG Labtechnologies, Offenburg, Germany) or a Viewlux (Perkin-Elmer). The ratio of the emissions at 665 nm and at 622 nm was taken as a measure of the amount of phosphorylated substrate. The data were normalized (enzymic reaction without inhibitor=0% inhibition, all other assay components but no enzyme=100% inhibition) and IC50 values were calculated with a 4-parameter fit using an inhouse software.

[2] = target: T2, CDK1/CycB (Homo sapiens, UniProt P06493); assay: CDK1/CycB kinase assay; conditions: 0.5 μM ATP
T2 construct: GST; purchased ProQinase GmbH, Freiburg; host or cells: baculovirus-infected insect cells (Sf9)
Protocol: Recombinant CDK1- and CycB-GST fusion proteins, purified from baculovirus-infected insect cells (Sf9), were purchased from ProQinase GmbH, Freiburg. The histone IIIS used as kinase substrate can be purchased from Sigma.
CDK1/CycB (5 ng/μL) was incubated in the presence of various concentrations of test substances (0 μM, and within the range 0.01-100 μM) in 40 μL of assay buffer [50 mM Tris/HCl pH 8.0, 10 mM MgCl2, 0.1 mM Na ortho-vanadate, 1.0 mM dithiothreitol, 0.025% PEG 20000, 0.5 μM ATP, 10 μM histone IIIS, 0.2 μCi/measurement point ^33P-gamma ATP, 0.05% NP40, 1.25% dimethyl sulphoxide] at 22° C. for 10 min. The reaction was stopped by adding EDTA solution (250 mM, pH 8.0, 15 μl/measurement point). 15 μl of each reaction mixture were loaded onto P30 filter strips (from Wallac), and non-incorporated ^33P-ATP was removed by washing the filter strips three times in 0.5% strength phosphoric acid for 10 min each time. After the filter strips had been dried at 70° C. for 1 hour, the filter strips were covered with scintillator strips (MeltiLex™ A, from Wallac) and baked at 90° C. for 1 hour. The amount of incorporated ^33P (substrate phosphorylation) was determined by scintillation measurement in a gamma radiation counter (Wallac).
(§1) The measured data were normalized to 0% inhibition (enzyme reaction without inhibitor) and 100% inhibition (all assay components except enzyme). The IC50 values were determined by means of a 4-parameter fit using the company's own software.

[3] = target: T3, CDK2/CycE (Homo sapiens, UniProt P24941); assay: CDK2/CycE kinase assay; conditions: 0.5 μM ATP
T3 construct: GST; purchased ProQinase GmbH, Freiburg; host or cells: baculovirus-infected insect cells (Sf9)
Protocol: Recombinant CDK2- and CycE-GST fusion proteins, purified from baculovirus-infected insect cells (Sf9), were purchased from ProQinase GmbH, Freiburg. The histone IIIS used as kinase substrate was purchased from Sigma. CDK2/CycE (1.25 ng/μL) was incubated in the presence of various concentrations of test substances (0 μM, and within the range 0.01-100 μM) in 40 μL of assay buffer [50 mM Tris/HCl pH 8.0, 10 mM MgCl2, 0.1 mM Na ortho-vanadate, 1.0 mM dithiothreitol, 0.5 μM ATP, 0.2% PEG20000, 10 μM histone IIIS, 0.2 μCi/measurement point ^33P-gamma ATP, 0.05% NP40, 1.25% dimethyl sulphoxide] at 22° C. for 10 min. The reaction was stopped by adding EDTA solution (250 mM, pH 8.0, 15 μl/measurement point).
15 μl of each reaction mixture were loaded onto P30 filter strips (from Wallac), and non-incorporated ^33P-ATP was removed by washing the filter strips three times in 0.5% strength phosphoric acid for 10 min each time.
(§2) After the filter strips had been dried at 70° C. for 1 hour, the filter strips were covered with scintillator strips (MeltiLex™ A, from Wallac) and baked at 90° C. for 1 hour. The amount of incorporated ^33P (substrate phosphorylation) was determined by scintillation measurement in a gamma radiation counter (Wallac).
as §1

[4] = target: T4, KDR (VEGFR2) (Homo sapiens, UniProt P35968); assay: KDR kinase assay; conditions: 8 μM ATP
T4 construct: GST; purchased ProQinase GmbH, Freiburg; host or cells: baculovirus-infected insect cells (Sf9)
Protocol: Recombinant KDR kinase-GST fusion proteins purified from baculovirus-infected insect cells (Sf9), were purchased from ProQinase GmbH, Freiburg. Poly(Glu4Tyr)n, which was used as kinase substrate, was purchased from Sigma.
KDR kinase was incubated in the presence of various concentrations of test substances (0 μM, and within the range 0.01-100 μM) in 40 μL of assay buffer [40 mM Tris/HCl pH 7.5, 10 mM MgCl2, 1 mM MnCl2, 1.0 mM dithiothreitol, 8 μM ATP, 0.025% PEG20000, 24 ng/μL poly(Glu4Tyr)n, 0.2 μCi/measurement point ^33P-gamma ATP, 1.25% dimethyl sulphoxide] at 22° C. for 10 min. The reaction was stopped by adding EDTA solution (250 mM, pH 7.5, 15 μl/measurement point). 15 μl of each reaction mixture were loaded onto P30 filter strips (from Wallac), and non-incorporated ^33P-ATP was removed by washing the filter strips three times in 0.5% strength phosphoric acid for 10 min each time.
as §2, §1

[5] = test system: Aurora C, CDK1/CycB, CDK2/CycE, KDR (VEGFR2); assay: various kinase assays taken together (selectivity profile); conditions: comparison across the kinase assays, in words
Protocol: The compounds of Examples 1 to 22 were tested for their inhibitory effect in the various kinase assays and in a proliferation assay with MCF7 human breast tumour cells (Tab. 1). […] Exemplary compounds 1-8, 10-12, 15, 17-20 inhibit the proliferation of human MCF7 breast tumour cells with half-maximum concentrations in the submicromolar range.

T2 sequence (P06493 whole entry): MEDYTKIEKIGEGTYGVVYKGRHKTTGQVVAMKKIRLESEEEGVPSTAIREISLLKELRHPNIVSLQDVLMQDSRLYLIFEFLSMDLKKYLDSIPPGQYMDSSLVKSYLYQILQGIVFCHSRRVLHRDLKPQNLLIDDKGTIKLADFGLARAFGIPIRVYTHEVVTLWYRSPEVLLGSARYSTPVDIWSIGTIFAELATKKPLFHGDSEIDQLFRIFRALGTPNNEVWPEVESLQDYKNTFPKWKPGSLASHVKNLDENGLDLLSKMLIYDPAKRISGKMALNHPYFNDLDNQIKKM
T2 sequence (P14635 whole entry partner): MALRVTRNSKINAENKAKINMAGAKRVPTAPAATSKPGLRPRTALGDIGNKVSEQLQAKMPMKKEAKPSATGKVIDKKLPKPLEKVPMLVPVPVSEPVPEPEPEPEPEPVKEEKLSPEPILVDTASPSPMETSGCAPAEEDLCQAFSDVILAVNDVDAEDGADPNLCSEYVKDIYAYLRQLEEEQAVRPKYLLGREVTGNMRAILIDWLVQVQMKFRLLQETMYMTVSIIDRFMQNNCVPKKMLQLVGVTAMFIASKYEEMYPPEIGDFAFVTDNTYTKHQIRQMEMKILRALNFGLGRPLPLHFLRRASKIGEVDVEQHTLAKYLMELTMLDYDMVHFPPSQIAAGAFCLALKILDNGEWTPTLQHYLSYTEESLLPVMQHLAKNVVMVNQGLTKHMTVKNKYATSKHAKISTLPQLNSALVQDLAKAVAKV
T4 sequence (P35968 807-1356 limits assumed): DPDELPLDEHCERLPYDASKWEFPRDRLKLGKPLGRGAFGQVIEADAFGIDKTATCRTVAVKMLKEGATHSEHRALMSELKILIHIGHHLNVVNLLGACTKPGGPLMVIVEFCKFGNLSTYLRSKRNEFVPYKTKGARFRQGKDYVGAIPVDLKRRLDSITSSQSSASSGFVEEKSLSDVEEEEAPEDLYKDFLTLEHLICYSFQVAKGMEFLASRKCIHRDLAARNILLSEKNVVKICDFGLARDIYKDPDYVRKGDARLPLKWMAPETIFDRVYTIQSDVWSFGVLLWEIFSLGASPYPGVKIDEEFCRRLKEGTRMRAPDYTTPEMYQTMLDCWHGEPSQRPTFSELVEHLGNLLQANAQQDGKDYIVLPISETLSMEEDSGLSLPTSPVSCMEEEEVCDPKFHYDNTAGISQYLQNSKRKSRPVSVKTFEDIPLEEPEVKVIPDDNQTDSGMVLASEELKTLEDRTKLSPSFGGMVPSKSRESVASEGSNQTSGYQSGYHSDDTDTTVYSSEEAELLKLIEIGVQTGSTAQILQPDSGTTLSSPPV

Cc1c(NC(=O)N=S(C)(C)=O)cccc1Nc1ncc(Br)c(N[C@H](C)[C@@H](C)O)n1 [Example 9, N-({3-[(5-Bromo-4-{[(1R,2R)-2-hydroxy-1-methylpropyl]amino}pyrimidin-2-yl)amino]-2-methylphenyl)carbamoyl)-S,S-dimethylsulphoximide]
IC50 [1]: 20 µM
IC50 [2]: 0.18 µM
IC50 [3]: 0.043 µM
IC50 [4]: > 1 µM
selectivity profile [5]: CDK-selective
